US4431665A, “Acylated laidlomycin derivatives” (priority 1980, dated 1984)
Like-named read-outs stand apart in the source and are kept apart here.

Assays:
[1] = test system: rumen microorganisms (mixed microbial population of rumen contents); test: Enhancement of intraruminal propionic acid production, batch culture fermentation of rumen contents; type: cell-based, bovine (rumen-fistulated); conditions: 9 h, 39° C.
Procedure: Enhancement of intraruminal propionic acid production is determined using a batch culture fermentation system. Rumen contents from a rumen-fistulated bovine are mixed with an equal amount of buffer which contains mineral, energy and nitrogen sources required for continued growth and metabolism of the mixed microbial population. Aliquots of this inoculum then are transferred to incubation vessels containing appropriate amounts of sodium laidlomycin (Na L.) (see Example 1A), and L. butyrate (L.C4) (prepared according to the procedure of Example 1A). After 9 hours of incubation at 39° C., concentrations of individual volatile fatty acids in each incubation vessel are determined by gas-liquid chromatography. The net production of each individual volatile fatty acid (acetic [AA], propionic [PA] and butyric [BA]) is calculated as the difference between the concentration after incubation and the concentration before incubation. The molar percentage of propionic acid produced is calculated from the following equation: [formula]
The comparative activities of sodium laidlomycin (Na L.) and the laidlomycin butyrate upon propionic acid and lactic acid production are set forth in Tables 1 and 2 where the concentration is in micrograms per ml (μg/ml).
(§1) The procedure of Example 2 was followed to compare laidlomycin (L.), sodium L. (Na L.), L.-propionate (L.C3), L. butyrate (L.C4), L. isobutyrate (L. isoC4), L. pentanoate (L.C5) and L. hexanoate (L.C6).
(§2) The procedure of Example 2 was followed to compare the activities of L. heptanoate (L. C7), L. octanoate (L. C8), L. decanoate (L. C10) and L. dodecanoate (L. C12) in increasing propionic acid production and inhibiting lactic acid production.
(§3) The procedure of Example 2 was followed to compare the activities of laidlomycin (L.) acetate (L. C2), L. pentanoate (L. C5), L. stearate (L. C18), L. cyclobutylcarboxylate, L. cyclopentylcarboxylate, L. cyclohexylcarboxylate and L. cyclopropylcarboxylate.

[2] = test system: rumen contents (lactic acid accumulation); test: Inhibition of lactic acid accumulation, second batch culture fermentation of rumen contents with glucose; type: cell-based, bovine (rumen fistulated); conditions: 6 h, 39° C.; for Lactic Acid Accumulation: Table 6, 0 μg/ml: 36.65; for Lactic Acid Accumulation (μ mol/ml): Table 8, 0 μg/ml: 40.47; for Accumulation of Lactic Acid - % of Control: Table 4, 360 min
Procedure: Inhibition of lactic acid accumulation is determined using a second batch culture fermentation system. Rumen contents from a rumen fistulated bovine are mixed with an equal amount of buffer which contains a 150 mM concentration of glucose. Following 6 hours of incubation at 39° C., lactic acid produced in the fermentation is analyzed by a specific enzymatic assay. The concentration of lactic acid in the fermentation broth is quantified by the increase in absorbance of light at […] when nicotinamide adenine dinucleotide is reduced by lactic acid with the aid of lactate dehydrogenase. […]
as §1, §2, §3

[3] = Table 5, 1.25 μg/ml, 0 μg/ml: 35.5
[4] = Table 5, 2.5 μg/ml, 0 μg/ml: 35.5
[5] = Table 5, 5 μg/ml, 0 μg/ml: 35.5
[6] = Table 5, 10 μg/ml, 0 μg/ml: 35.5
[7] = Table 5, 20 μg/ml, 0 μg/ml: 35.5
[8] = Table 5, .31 μg/ml, 0 μg/ml: 35.5
[9] = Table 5, .63 μg/ml, 0 μg/ml: 35.5
[10] = Table 3, 1.25 μg/ml, 0 μg/ml: 28.5
[11] = Table 3, 5 μg/ml, 0 μg/ml: 28.5
[12] = Table 3, 20 μg/ml, 0 μg/ml: 28.5
[13] = Table 3, .31 μg/ml, 0 μg/ml: 28.5
[14] = Bos taurus, read-out: Accumulation of Lactic Acid - % of Control, Table 4, 1.25 μg/ml
[15] = Bos taurus, read-out: Accumulation of Lactic Acid - % of Control, Table 4, 5 μg/ml
[16] = Bos taurus, read-out: Accumulation of Lactic Acid - % of Control, Table 4, 20 μg/ml
[17] = Bos taurus, read-out: Accumulation of Lactic Acid - % of Control, Table 4, .31 μg/ml

CCCCCCCCCCCC(=O)OCC1(O)OC(C2CC(C)C(C3(C)CCC(C4(C)CCC5(CC(O)C(C)C(C(C)C(OC(=O)CC)C(C)C(=O)O)O5)O4)O3)O2)C(C)CC1C (centres unmarked) [L. C12, laidlomycin dodecanoate]
% Propionic Acid [1, 3]: 45.3% | % Propionic Acid [1, 4]: 46.1% | % Propionic Acid [1, 5]: 46.8% | % Propionic Acid [1, 6]: 47.7% | % Propionic Acid [1, 7]: 48.0% | % Propionic Acid [1, 8]: 42.0% | % Propionic Acid [1, 9]: 43.8% | Lactic Acid Accumulation ([2]; 1.25 μg/ml): 11.19 µmol/mL | Lactic Acid Accumulation ([2]; 2.5 μg/ml): 1.04 µmol/mL | Lactic Acid Accumulation ([2]; 5 μg/ml): 3.32 µmol/mL | Lactic Acid Accumulation ([2]; 10 μg/ml): 2.16 µmol/mL | Lactic Acid Accumulation ([2]; 20 μg/ml): 1.65 µmol/mL | Lactic Acid Accumulation ([2]; .31 μg/ml): 34.90 µmol/mL | Lactic Acid Accumulation ([2]; .63 μg/ml): 38.01 µmol/mL

CCC(=O)OC(C(C)C(=O)O)C(C)C1OC2(CCC(C)(C3CCC(C)(C4OC(C5OC(O)(COC(=O)C6CCCCC6)C(C)CC5C)CC4C)O3)O2)CC(O)C1C (centres unmarked) [Cyclohexylcarboxylate, laidlomycin cyclohexylcarboxylate]
% Propionic Acid ([1]; Table 7, 1.25 μg/ml, 0 μg/ml: 36.1): 50.1% | % Propionic Acid ([1]; Table 7, 2.5 μg/ml, 0 μg/ml: 36.1): 50.8% | % Propionic Acid ([1]; Table 7, 5 μg/ml, 0 μg/ml: 36.1): 51.6% | % Propionic Acid ([1]; Table 7, 10 μg/ml, 0 μg/ml: 36.1): 51.8% | % Propionic Acid ([1]; Table 7, 20 μg/ml, 0 μg/ml: 36.1): 53.3% | % Propionic Acid ([1]; Table 7, .313 μg/ml, 0 μg/ml: 36.1): 47.2% | % Propionic Acid ([1]; Table 7, .625 μg/ml, 0 μg/ml: 36.1): 49.0% | Lactic Acid Accumulation (μ mol/ml) ([2]; 1.25 μg/ml): 3.74 μ mol/ml | Lactic Acid Accumulation (μ mol/ml) ([2]; 2.5 μg/ml): 4.40 μ mol/ml | Lactic Acid Accumulation (μ mol/ml) ([2]; 5 μg/ml): 4.83 μ mol/ml | Lactic Acid Accumulation (μ mol/ml) ([2]; 10 μg/ml): 4.97 μ mol/ml | Lactic Acid Accumulation (μ mol/ml) ([2]; 20 μg/ml): 5.72 μ mol/ml | Lactic Acid Accumulation (μ mol/ml) ([2]; .313 μg/ml): 35.55 μ mol/ml | Lactic Acid Accumulation (μ mol/ml) ([2]; .625 μg/ml): 12.78 μ mol/ml

CCCCCC(=O)OCC1(O)OC(C2CC(C)C(C3(C)CCC(C4(C)CCC5(CC(O)C(C)C(C(C)C(OC(=O)CC)C(C)C(=O)O)O5)O4)O3)O2)C(C)CC1C (centres unmarked) [L. C6, laidlomycin hexanoate]
% Propionic Acid [1, 10]: 37.1% | % Propionic Acid [1, 11]: 40.1% | % Propionic Acid [1, 12]: 41.7% | % Propionic Acid [1, 13]: 33.0% | activity at 1.25 µg/mL [2, 14]: 18% | activity at 5 µg/mL [2, 15]: 11% | activity at 20 µg/mL [2, 16]: 14% | activity at 0.31 µg/mL [2, 17]: 60%

CCCCCCCCCC(=O)OCC1(O)OC(C2CC(C)C(C3(C)CCC(C4(C)CCC5(CC(O)C(C)C(C(C)C(OC(=O)CC)C(C)C(=O)O)O5)O4)O3)O2)C(C)CC1C (centres unmarked) [L. C10, laidlomycin decanoate]
% Propionic Acid [1, 3]: 45.5% | % Propionic Acid [1, 4]: 47.1% | % Propionic Acid [1, 5]: 46.7% | % Propionic Acid [1, 6]: 46.6% | % Propionic Acid [1, 7]: 48.1% | % Propionic Acid [1, 8]: 39.9% | % Propionic Acid [1, 9]: 43.6% | Lactic Acid Accumulation ([2]; 1.25 μg/ml): 0.84 µmol/mL | Lactic Acid Accumulation ([2]; 2.5 μg/ml): 1.20 µmol/mL | Lactic Acid Accumulation ([2]; 5 μg/ml): 0.94 µmol/mL | Lactic Acid Accumulation ([2]; 10 μg/ml): 0.94 µmol/mL | Lactic Acid Accumulation ([2]; 20 μg/ml): 0.96 µmol/mL | Lactic Acid Accumulation ([2]; .31 μg/ml): 36.86 µmol/mL | Lactic Acid Accumulation ([2]; .63 μg/ml): 30.78 µmol/mL

CCC(=O)OC(C(C)C(=O)O)C(C)C1OC2(CCC(C)(C3CCC(C)(C4OC(C5OC(O)(COC(=O)C(C)C)C(C)CC5C)CC4C)O3)O2)CC(O)C1C (centres unmarked) [L. iso C4, laidlomycin isobutyrate]
% Propionic Acid [1, 10]: 39.6% | % Propionic Acid [1, 11]: 43.9% | % Propionic Acid [1, 12]: 47.5% | % Propionic Acid [1, 13]: 34.3% | activity at 1.25 µg/mL [2, 14]: 12% | activity at 5 µg/mL [2, 15]: 13% | activity at 20 µg/mL [2, 16]: 16% | activity at 0.31 µg/mL [2, 17]: 37%

CCCCCCCC(=O)OCC1(O)OC(C2CC(C)C(C3(C)CCC(C4(C)CCC5(CC(O)C(C)C(C(C)C(OC(=O)CC)C(C)C(=O)O)O5)O4)O3)O2)C(C)CC1C (centres unmarked) [L. C8, laidlomycin octanoate]
% Propionic Acid [1, 3]: 46.4% | % Propionic Acid [1, 4]: 47.3% | % Propionic Acid [1, 5]: 48.2% | % Propionic Acid [1, 6]: 47.5% | % Propionic Acid [1, 7]: 49.4% | % Propionic Acid [1, 8]: 42.7% | % Propionic Acid [1, 9]: 43.9% | Lactic Acid Accumulation ([2]; 1.25 μg/ml): 1.21 µmol/mL | Lactic Acid Accumulation ([2]; 2.5 μg/ml): 1.31 µmol/mL | Lactic Acid Accumulation ([2]; 5 μg/ml): 1.27 µmol/mL | Lactic Acid Accumulation ([2]; 10 μg/ml): 1.39 µmol/mL | Lactic Acid Accumulation ([2]; 20 μg/ml): 2.14 µmol/mL | Lactic Acid Accumulation ([2]; .31 μg/ml): 41.96 µmol/mL | Lactic Acid Accumulation ([2]; .63 μg/ml): 9.41 µmol/mL

CCC(=O)OC(C(C)C(=O)O)C(C)C1OC2(CCC(C)(C3CCC(C)(C4OC(C5OC(O)(CO)C(C)CC5C)CC4C)O3)O2)CC(O)C1C (centres unmarked) [Na L., sodium laidlomycin, reference compound]
% Propionic Acid ([1]; Table 1, 1.25 μg/ml, 0 μg/ml: 35.4): 41.3% | % Propionic Acid ([1]; Table 1, 2.5 μg/ml, 0 μg/ml: 35.4): 43.2% | % Propionic Acid ([1]; Table 1, 5 μg/ml, 0 μg/ml: 35.4): 44.4% | % Propionic Acid ([1]; Table 1, 10 μg/ml, 0 μg/ml: 35.4): 45.4% | % Propionic Acid ([1]; Table 1, .31 μg/ml, 0 μg/ml: 35.4): 40.2% | % Propionic Acid ([1]; Table 1, .62 μg/ml, 0 μg/ml: 35.4): 40.8% | % Propionic Acid [1, 10]: 34.1% | % Propionic Acid [1, 11]: 34.6% | % Propionic Acid [1, 12]: 36.8% | % Propionic Acid [1, 13]: 32.0% | activity at 1.25 µg/mL ([2]; Bos taurus, read-out: Lactic Acid Accumulation (% of Control), Table 2, 1.25 μg/ml): 125% | activity at 2.5 µg/mL ([2]; Bos taurus, read-out: Lactic Acid Accumulation (% of Control), Table 2, 2.5 μg/ml): 112% | activity at 5 µg/mL ([2]; Bos taurus, read-out: Lactic Acid Accumulation (% of Control), Table 2, 5 μg/ml): 93% | activity at 10 µg/mL ([2]; Bos taurus, read-out: Lactic Acid Accumulation (% of Control), Table 2, 10 μg/ml): 67% | activity at 0.31 µg/mL ([2]; Bos taurus, read-out: Lactic Acid Accumulation (% of Control), Table 2, .31 μg/ml): 135% | activity at 0.62 µg/mL ([2]; Bos taurus, read-out: Lactic Acid Accumulation (% of Control), Table 2, .62 μg/ml): 132% | Accumulation of Lactic Acid - % of Control ([2]; 1.25 μg/ml): 94 % of Control | Accumulation of Lactic Acid - % of Control ([2]; 5 μg/ml): 57 % of Control | Accumulation of Lactic Acid - % of Control ([2]; 20 μg/ml): 40 % of Control | Accumulation of Lactic Acid - % of Control ([2]; .31 μg/ml): 114 % of Control
